Reference: ChEMBL document CHEMBL1201862, “PubChem BioAssay data set” (2004)
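Briefly, cells in 96-well plates were exposed to five compound concentrations for 48 h, and endpoints were estimated by linear interpolation. GI50 marks 50% less growth.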 Active and inactive are the calls of the source. No stated cut-off is given here; in the data, active = GI50 up to about 1.1 µM and inactive = higher.

What was measured:
Test in all cases: growth of human tumour cells (NCI), 48 h
DLD-1 = test system: DLD-1
DMS-273 = test system: DMS-273
KM-20L2 = test system: KM-20L2
SNB-78 = test system: SNB-78
XF498 = test system: XF498
DMS-114 = test system: DMS-114
HOP-18 = test system: HOP-18
M19-MEL = test system: M19-MEL
RXF 631 = test system: RXF 631

Measured: GI50

O=C(CCC(=O)Nc1ccc(Cl)cc1)CC(=O)c1ccc(F)cc1
inactive: DLD-1 > 100 µM | DMS-273 > 100 µM | KM-20L2 > 100 µM | SNB-78 > 100 µM | XF498 > 100 µM

CCOC(=O)C1=C(OC(OCC)C(CC)[Se]c2ccccc2)CCC1 (centres undefined)
inactive: DLD-1 19.3 µM | DMS-114 4.62 µM | DMS-273 13.2 µM | HOP-18 23.1 µM | KM-20L2 29.8 µM | M19-MEL 14.4 µM | RXF 631 10.3 µM | SNB-78 24.5 µM | XF498 23.1 µM

N#Cc1c(-c2ccccc2)cc(-c2ccc(N)cc2)[nH]c1=O
inactive: DLD-1 > 100 µM | DMS-114 > 100 µM | DMS-273 > 100 µM | HOP-18 > 100 µM | KM-20L2 > 100 µM | M19-MEL > 100 µM | RXF 631 > 100 µM | SNB-78 > 100 µM

CCN1CCN(c2ccc(Nc3ccnc4ccc5nn(C)nc5c34)cc2)CC1
inactive: DLD-1 11.6 µM | DMS-114 10.1 µM | KM-20L2 8.36 µM | M19-MEL 16.1 µM | RXF 631 10 µM | SNB-78 14.2 µM | XF498 13.9 µM

NC(=S)N/N=C(\C(=O)Nc1ccc(Cl)c(Cl)c1)C1=NN(c2ccccc2)C(c2cccc([N+](=O)[O-])c2)CC1=O (centres undefined)
inactive: DLD-1 19.4 µM | DMS-114 20.7 µM | DMS-273 11.7 µM | HOP-18 29.1 µM | KM-20L2 20.7 µM | M19-MEL 18.4 µM | RXF 631 12 µM | SNB-78 62.4 µM | XF498 34.3 µM

O=C1CC[C@H]2CNC(=O)C[C@H]2C1
inactive: DLD-1 > 100 µM | DMS-273 > 100 µM | M19-MEL > 100 µM | RXF 631 > 100 µM | SNB-78 > 100 µM | XF498 > 100 µM

Cc1cccc2c(=O)cc(-c3ccccc3)[nH]c12
inactive: DLD-1 4.31 µM | DMS-114 3.95 µM | DMS-273 3.57 µM | KM-20L2 4.07 µM | M19-MEL 4.61 µM | XF498 3.01 µM

COC(=O)/C(=N\Nc1nnc(C)n1N)C(C#N)c1ccc(Cl)cc1 (centres undefined)
inactive: DLD-1 > 100 µM | DMS-114 58.1 µM | DMS-273 > 100 µM | HOP-18 > 100 µM | KM-20L2 > 100 µM | M19-MEL > 100 µM | SNB-78 > 100 µM | XF498 > 100 µM

CN1OC(CO)CC12C1CC3CC(C1)CC2C3 (centres undefined)
inactive: DLD-1 > 100 µM | DMS-114 > 100 µM | DMS-273 > 100 µM | HOP-18 > 100 µM | KM-20L2 > 100 µM | M19-MEL > 100 µM

C/C(=N\NC(=S)NC(CCC(=O)O)C(=O)O)c1cnccn1 (centres undefined)
inactive: DLD-1 > 100 µM | DMS-114 > 100 µM | HOP-18 > 100 µM | KM-20L2 > 100 µM | M19-MEL > 100 µM | RXF 631 > 100 µM | SNB-78 > 100 µM | XF498 > 100 µM

CSc1nc(NC2OC(COC(C)=O)C(OC(C)=O)C(OC(C)=O)C2OC(C)=O)c(/N=C\C=N/c2c(NC3OC(COC(C)=O)C(OC(C)=O)C(OC(C)=O)C3OC(C)=O)nc(SC)n(C)c2=O)c(=O)n1C (centres undefined)
inactive: DLD-1 > 100 µM | DMS-114 > 100 µM | DMS-273 > 100 µM | HOP-18 > 67.1 µM | KM-20L2 > 100 µM | M19-MEL > 100 µM | RXF 631 51.8 µM | SNB-78 31.7 µM | XF498 15.6 µM

COc1ccc(/C=N\N2C(=O)Cc3ccccc32)cc1
inactive: DLD-1 > 100 µM | DMS-273 > 100 µM | HOP-18 > 100 µM | KM-20L2 > 100 µM | M19-MEL > 100 µM | SNB-78 91.2 µM | XF498 27.4 µM

O=C1C(=O)N(c2cccc(C(F)(F)F)c2)C(=O)C(=O)C1c1nc2ccccc2s1
inactive: DLD-1 74.3 µM | DMS-114 45.8 µM | DMS-273 > 100 µM | HOP-18 63.7 µM | KM-20L2 > 100 µM | M19-MEL 45.1 µM | RXF 631 88.1 µM | SNB-78 > 100 µM | XF498 > 100 µM

CCOC(=O)NC(=O)c1cn(C2OC(COC(=O)CCCCCCCCC(=O)OCC3OC(n4cc(C(=O)NC(=O)OCC)c(=O)[nH]c4=O)C(O)C3O)C(O)C2O)c(=O)[nH]c1=O (centres undefined)
inactive: DLD-1 > 100 µM | DMS-114 > 100 µM | DMS-273 > 100 µM | HOP-18 > 100 µM | KM-20L2 > 100 µM | M19-MEL > 100 µM | RXF 631 > 100 µM | SNB-78 > 100 µM | XF498 > 100 µM

O=C1c2ccccc2OP(=O)(OCC(F)(F)F)OC1(C(F)(F)F)C(F)(F)F (centres undefined)
inactive: DMS-114 > 100 µM | DMS-273 > 100 µM | KM-20L2 > 100 µM | M19-MEL > 100 µM | SNB-78 > 100 µM | XF498 > 100 µM

N#Cc1ccc(C(C2C(=O)NC(=O)NC2=O)C2C(=O)NC(=O)NC2=O)cc1
inactive: DMS-273 > 100 µM | KM-20L2 > 100 µM | M19-MEL > 100 µM

COc1ccc(C(C#N)Cc2cc(OC)c(OC)c(OC)c2)cc1 (centres undefined)
inactive: DLD-1 45.7 µM | DMS-114 17.4 µM | DMS-273 7.16 µM | HOP-18 > 100 µM | M19-MEL 29.9 µM | RXF 631 35.6 µM | SNB-78 39.8 µM

N#CC(C(=O)/C(=N\Nc1nc(S)nn1N)C(C#N)c1ccc(Cl)cc1)c1ccc(Cl)cc1 (centres undefined)
inactive: DLD-1 > 100 µM | DMS-114 > 100 µM | DMS-273 > 100 µM | HOP-18 > 100 µM | KM-20L2 > 100 µM | M19-MEL > 100 µM | SNB-78 > 100 µM | XF498 > 100 µM

Cc1ccc(S(=O)(=O)N/N=C(\CCN2CCCC2)CC(c2ccccc2)c2c(O)c3ccccc3oc2=O)cc1 (centres undefined)
inactive: DLD-1 > 100 µM | HOP-18 > 100 µM | KM-20L2 > 100 µM | M19-MEL > 100 µM | RXF 631 > 100 µM | SNB-78 > 100 µM | XF498 > 100 µM

CC(C)(C)C1=Cc2cc3cc(C(C)(C)C)[nH]c(=O)c3cc2S(=O)(=O)N1
inactive: DLD-1 31.7 µM | DMS-114 21.4 µM | M19-MEL 19.7 µM | SNB-78 42.1 µM

CCOC(=O)/C(C(=O)c1ccccc1)=C1\N[C@H](C(=O)OCC)CS1
inactive: DLD-1 > 100 µM | HOP-18 16.3 µM | KM-20L2 > 100 µM | RXF 631 > 100 µM | SNB-78 > 100 µM | XF498 > 100 µM

COC1OC(OC)C2C(c3c(C)cc(C)cc3C)=NOC12 (centres undefined)
inactive: DLD-1 > 100 µM | DMS-273 > 100 µM | HOP-18 > 100 µM | KM-20L2 > 100 µM | M19-MEL > 100 µM | SNB-78 > 100 µM | XF498 > 100 µM

O=C(O)CCc1nn2c(nc1=O)sc1ccc3ccccc3c12
inactive: DLD-1 > 100 µM | DMS-114 > 100 µM | DMS-273 > 100 µM | HOP-18 > 100 µM | KM-20L2 > 100 µM | M19-MEL > 100 µM | RXF 631 > 100 µM | SNB-78 > 100 µM | XF498 > 100 µM

O=C1NC(=O)C2C(=O)NC(=O)C1C2(c1ccccc1)c1cc[nH]c1 (centres undefined)
inactive: DLD-1 > 100 µM | DMS-114 > 100 µM | DMS-273 > 100 µM | M19-MEL > 100 µM | SNB-78 > 100 µM | XF498 > 100 µM
